Results on three compounds are retold here after ChEMBL document CHEMBL1148161, “Jaspisamides A-C, new cytotoxic macrolides from the Okinawan sponge Jaspis sp” (J Nat Prod, 1993).

Values after ≈ are worked out from the molar mass of the structure shown. A value given as a limit tells only on which side of the number the result lay.

The test system of one experiment is L1210. The experiment can be described thus: Cytotoxicity against mouse L1210 cells. The format is functional, cell-based.
The subject of a further experiment is KB. The experiment can be described thus: Cytotoxicity against human KB cells. Format: functional, cell-based.

Consider `COC(CC1OC(=O)CC(O)CC(O)CC(=O)C(C)C(OC)c2coc(n2)-c2coc(n2)-c2coc(n2)/C=C/CCC1C)C(C)CCC(=O)C(C)C(C/C=C/N(C)C=O)OC` (stereo unspecified) [JASPISAMIDE A], for which the IC50 (in general, the concentration at which inhibition is half-maximal) in the experiment with L1210 was less than 1 ng/mL; with KB, 15 ng/mL (≈ 17.5 nM).
The corresponding values for `COC(CC1OC(=O)CC(O)C/C=C/C(=O)C(C)C(OC)c2coc(n2)-c2coc(n2)-c2coc(n2)/C=C/CC(O)C1C)C(C)CCC(=O)C(C)C(C/C=C/N(C)C=O)OC` (stereo unspecified) [JASPISAMIDE B] are less than 1 ng/mL and 6 ng/mL (≈ 7.03 nM).
The matching figures for `COC(CC1OC(=O)CC(O)C/C=C/C(=O)C(C)C(OC)c2coc(n2)-c2coc(n2)-c2coc(n2)/C=C/CCC1C)C(C)CCC(=O)C(C)C(OC)C(C)/C=C/N(C)C=O` (stereo unspecified) [JASPISAMIDE C]: less than 1 ng/mL and 13 ng/mL (≈ 15.3 nM).
